Data on 31 compounds can be found in PubChem BioAssay (NCI).

Common to all, as to assay: NCI-60 cell line screen, 48 h
Test [1] deals with SW-620 colon.
In test [2] the test system is K-562 leukemia.
The test system of test [3] is NCI-H23 lung.
For test [4], the system named is U251 CNS.
Test [5] deals with UACC-257 melanoma.
Test [6] deals with HOP-62 NSCLC.
The subject of test [7] is 786-0 renal.
Test [8] relates to HL-60(TB) leukemia.
For test [9], the system named is MDA-MB-435.
Test [10] deals with NCI/ADR-RES ovarian.

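Each compound was tested at five concentrations against cells in 96-well plates for 48 hours. The concentration for 50% growth inhibition is given as GI50. At the TGI there is no net growth.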

For the compound `CCc1ccccc1-n1c2nc(=O)n(C)c(=O)c-2nc2ccccc21`, the TGI in [1] was 27.3 µM; in test [2] it was 31.8 µM; in [3] it was 18.2 µM; in [4] it was 32.8 µM; in [5], 18.6 µM; in [6] it was > 100 µM. The compound also yielded a TGI in test [7] of 30.5 µM.

As to `O=C(/C=C/c1c(O)ccc2ccccc12)c1cccc2ccccc12`, the TGI in test [8] was > 63.7 µM; in test [1], > 51.6 µM; in test [2], > 88.6 µM; in [3], > 100 µM; in [4], > 100 µM; in test [5] it was > 100 µM. In addition, the TGI in test [6] and in test [7] was > 100 µM throughout.

`O=C(CCc1ccccc1)On1nnc2ccccc2c1=O`: the TGI in test [8], in test [1], in [2], in test [3], in test [4] and in [5] was > 100 µM in each case. Besides, the TGI in test [6] and in test [7] was > 100 µM throughout.

Consider `COc1cc(/C=C2\CC3C4CC=C5C[C@@H](N6CCCC6)CC[C@]5(C)C4CC[C@]3(C)[C@H]2OC(C)=O)ccc1OCCN1CCCCC1` (stereo not given in full), for which the GI50 is 0.777 µM in test [1]; 0.105 µM in test [2]; 1.83 µM in [9]; 1.68 µM in test [3]; 1.74 µM in test [10]; 1.55 µM in test [4]. Also, the GI50 in test [5] is 1.93 µM; in test [6], 1.49 µM; in [7], 0.217 µM. The TGI is 2.09 µM in test [1]; 0.71 µM in [2]; 3.44 µM in test [9]; 3.14 µM in test [3]; 3.2 µM in test [10]; 3.02 µM in test [4]. The TGI in test [5] worked out at 3.91 µM; in test [6] it was 2.87 µM; in test [7] it was 1.89 µM.

For the compound `O=C1NC(=O)C2(CCC(O)C2)c2cc[n+]([O-])cc21` (stereo not given), the TGI in test [1], in test [2], in test [9], in test [3], in [4] and in test [5] was > 100 µM in each case. For the same compound, the TGI in [6] and in test [7] was > 100 µM throughout.

Turning to `O=C(O)C(Br)C(Br)c1ccccc1[N+](=O)[O-]` (stereo not given), the TGI in test [1], in test [2], in test [9], in test [3], in test [10] and in test [4] was > 100 µM in each case. Further, the TGI in test [5], in [6] and in test [7] was > 100 µM each time.

Consider `COc1ccc2c(c1OC)-c1c(c3ccc([N+](=O)[O-])cc3c(=O)n1CCCN=[N+]=[N-])C2=O`, for which the GI50 in test [1] was 23.1 µM; in [2], 23.3 µM; in test [9], 72.4 µM; in test [3] it was 17.5 µM; in test [10] it was 12.2 µM; in [4], 6.2 µM. Also, the GI50 in test [5] is 17.2 µM; in test [6], 5.02 µM; in test [7], 3.44 µM. The TGI in test [1], in test [2], in test [9], in [3], in test [10] and in test [4] was > 100 µM in each case. Moreover, the values for the TGI in test [5], in test [6] and in [7] were > 100 µM, 92.8 µM and 15.8 µM, respectively.

As for `CCCCSCc1nc2nc(Cl)c(Cl)nc2[nH]1`, the TGI in [1] is > 100 µM; in [2], 99.5 µM; in [9], > 100 µM; in test [3], 44.6 µM; in test [10] it was 90.8 µM; in test [4], 55.6 µM. Besides, the TGI worked out at 44.5 µM in test [5], 42 µM in test [6] and 69.3 µM in [7].

Regarding `COc1ccc(/C(Cl)=C(\C=O)c2ccc(Br)cc2)cc1OC`, the TGI in [8], in test [1], in test [2], in test [3], in test [4] and in [5] was > 100 µM throughout. For the same compound, the TGI in test [6] and in test [7] was > 100 µM each time.

In the case of `O=C1OC(c2ccccc2)=N/C1=C\c1c(O)cc(O)cc1O`, the TGI in test [1], in test [2], in test [3], in test [4], in test [5] and in test [7] was > 100 µM throughout.

Take `Cc1cccc2c1Oc1cc(Cl)ccc1C2NC(=O)CN(C)C` (stereo not given): the TGI in test [8] is 45.3 µM; in test [1] it was > 100 µM; in test [2], > 100 µM; in test [3], > 100 µM; in test [5] it was 89.5 µM; in test [6] it was > 100 µM. Moreover, in test [7], the TGI was 41.4 µM.

Regarding `CC1=Nc2c([nH]c(=S)[nH]c2=O)NC(c2ccc(Cl)c(Cl)c2)C1` (stereo not given), the TGI was > 100 µM in test [8]; > 57.7 µM in [1]; > 100 µM in test [2]; 40.2 µM in test [3]; 31.1 µM in test [4]; 47 µM in test [5]. Besides, the TGI was > 100 µM in test [6] and 32.5 µM in [7].

In the case of `O=C(N/C(=C\c1ccc(Br)cc1)c1nc2ccccc2s1)c1ccccc1`, the TGI in test [1], in test [2], in test [3], in test [4], in test [5] and in test [7] was > 100 µM throughout.

With `Cc1[nH]c(=O)nc(CC(O)(c2ccccc2)c2ccccc2)c1-c1ccccc1`, the TGI in [8], in [1], in test [2], in [3], in [4] and in [5] was > 100 µM throughout. Also, the TGI in [6] and in test [7] was > 100 µM throughout.

For `O=C(O)c1ccc(N=Nc2cc(S(=O)(=O)O)c3cccnc3c2O)cc1`, the TGI in test [8], in test [1], in [2], in test [3], in test [4] and in test [5] was > 100 µM each time. In addition, the TGI in test [6] and in [7] was > 100 µM throughout.

As to `N#CCC(=O)N/N=C1/C(=O)NC(=O)C(=O)C1c1nc2ccccc2s1` (stereo not given), the TGI in test [1], in test [2], in [3], in [4], in [5] and in [6] was > 100 µM throughout. Also, the TGI in [7] was > 100 µM.

Regarding `CCOC(=O)C1=C(NC(C)(C)C)OCC1=O`, the TGI in test [8], in test [1], in [2], in test [3], in test [4] and in test [5] was > 100 µM throughout. Moreover, the TGI in test [6] and in test [7] was > 100 µM throughout.

As to `CN(/N=C/c1ccnc2ccccc12)c1ccc([N+](=O)[O-])cc1[N+](=O)[O-]`, the TGI in test [8], in test [1], in [2], in test [3], in test [4] and in test [5] was > 100 µM throughout. Further, the figures for the TGI in [6] and in [7] were 89.1 µM and 74.6 µM, respectively.

For `CN(C)c1nc(N(C)C)n2nc(-c3ccccc3[N+](=O)[O-])nc2n1`, the TGI in test [8] was > 100 µM; in test [1], 24.2 µM; in test [2], > 100 µM; in [3] it was > 100 µM; in test [4], > 100 µM; in [5], > 100 µM. The TGI in [6] and in test [7] was > 100 µM throughout.

With `Fc1ccc(F)c(C2SCc3nc4ccccc4n32)c1` (stereo not given), the TGI was 53.9 µM in test [8]; > 100 µM in test [1]; > 100 µM in [2]; > 100 µM in [3]; > 100 µM in test [4]; > 100 µM in test [5]. Besides, the TGI in test [6] and in test [7] was > 100 µM in each case.

As for `COc1ccc(/C=C/c2nc(=S)[nH][nH]2)cc1`, the TGI in [8], in test [1], in [2], in test [3], in [4] and in test [5] was > 100 µM in each case. In [7], the TGI is > 100 µM.

With `COc1ccc(NC(=O)Nc2ccc(Nc3nc(C)cc(Nc4ccc(C)cc4)n3)cc2)cc1`, the GI50 in test [10] was 1.33 µM; in [4], 1.72 µM; in [5], 1.89 µM; in test [6], 1.58 µM; in [7], 0.253 µM. For the same compound, the TGI in [10] was 3.75 µM; in [4], 3.21 µM; in test [5], 3.69 µM; in test [6] it was 3.05 µM; in [7], 0.702 µM.

With `COC(=O)C1=C(c2cc(OC)c(OC)c(OC)c2)OC(c2cc(OC)c(OC)c(OC)c2)C1COC(C)=O` (stereo not given), the TGI in test [8] was 30.5 µM; in test [1], > 100 µM; in test [2], > 100 µM; in test [3] it was > 100 µM; in [4], > 100 µM; in test [5], > 100 µM. Further, the TGI in [6] and in test [7] was > 100 µM in each case.

For the compound `OCC(O)COc1c(Cl)ccc(Cl)c1Cl` (stereo not given), the TGI in test [8], in test [1], in test [2], in test [3], in [4] and in [5] was > 100 µM each time. The TGI in test [6] and in test [7] was > 100 µM in each case.

For the compound `O=C(CCC(=O)N/N=C/c1ccccc1O)N/N=C/c1ccccc1O`, the TGI in test [1], in [2], in test [3], in test [4], in test [5] and in test [7] was > 100 µM in each case.

`COC1(OC)CC2C(=O)N(Cc3ccccc3)C1CC2S(=O)(=O)c1ccccc1` (stereo not given): the TGI in test [8], in test [1], in test [2], in [3], in [4] and in test [5] was > 100 µM throughout. For the same compound, the TGI in test [6] and in test [7] was > 100 µM throughout.

Turning to `CCOC(=O)CC1=NC(=Nc2cc(Cl)ccc2Cl)SC1`, the TGI in test [8], in [1], in test [2], in test [3], in [4] and in test [5] was > 100 µM throughout. For the same compound, the TGI in test [6] and in test [7] was > 100 µM throughout.

Take `COc1cc2nc(-c3ccc(-n4cncc4-c4ccc(N)cc4)cc3)sc2c(OC)c1OC`: the GI50 was 3.87 µM in [3]; 1.61 µM in [10]; 3.84 µM in test [4]; 6.4 µM in test [5]; 6.26 µM in test [7]. The TGI was 23.7 µM in [3]; 6.43 µM in test [10]; 17 µM in test [4]; > 100 µM in test [5]; > 100 µM in test [7].

Regarding `C[C@H]1COC2(c3ccccc3)CCC(=O)N12` (stereo not given in full), the TGI in test [1], in test [2], in [3], in [4], in [5] and in [6] was > 100 µM in each case. In addition, in test [7], the TGI was > 100 µM.

Regarding `CCc1ccc(/C(C)=N/NC(N)=S)cc1`, the TGI in [2], in test [3], in test [4], in test [6] and in test [7] was > 100 µM in each case.

With `O=C(CCCNC(=O)OCc1ccccc1)OCc1ccc2c(c1)C(=O)c1ccccc1C2=O`, the TGI in [8], in [1], in [2], in test [3], in test [4] and in test [5] was > 100 µM throughout. The TGI was > 93.4 µM in test [6] and > 56.2 µM in test [7].
